Results reported in ChEMBL document CHEMBL1201862, “PubChem BioAssay data set” (2004).
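Compound exposure: 48 hours, 5 concentrations, 96-well plates. Abbreviation: GI50, concentration required for 50% inhibition of growth.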 Calls of active or inactive are those of the source. Cut-off read from the data, not from the text of the source: active = GI50 up to about 1.1 µM and inactive = higher.

Legend:
Test in all cases: inhibition of tumour cell growth, NCI panel, 48 h
COLO 205 = tested on: COLO 205
HCT-116 = tested on: HCT-116
PC-3 = tested on: PC-3
RXF 393 = tested on: RXF 393
EKVX = tested on: EKVX
HCT-15 = tested on: HCT-15
MDA-MB-435 = tested on: MDA-MB-435
SNB-19 = tested on: SNB-19
TK-10 = tested on: TK-10
OVCAR-3 = tested on: OVCAR-3
Malme-3M = tested on: Malme-3M
SN12C = tested on: SN12C
HOP-62 = tested on: HOP-62
SK-MEL-28 = tested on: SK-MEL-28
NCI-H460 = tested on: NCI-H460
SK-MEL-5 = tested on: SK-MEL-5
NCI-H23 = tested on: NCI-H23
DMS-273 = tested on: DMS-273
K562 = tested on: K562
BT-549 = tested on: BT-549

SMILES | GI50 (COLO 205) | GI50 (HCT-116) | GI50 (PC-3) | GI50 (RXF 393) | GI50 (EKVX) | GI50 (HCT-15) [µM] | GI50 (MDA-MB-435) | GI50 (SNB-19) | GI50 (TK-10) | GI50 (OVCAR-3) | GI50 (Malme-3M) | GI50 (SN12C) | GI50 (HOP-62) | GI50 (SK-MEL-28) | GI50 (NCI-H460) | GI50 (SK-MEL-5) | GI50 (NCI-H23) | GI50 (DMS-273) | GI50 (K562) | GI50 (BT-549)
COc1cccc2c1C(=O)c1c(O)c3c(c(O)c1C2=O)C[C@@](O)(/C(C)=N/NC(=O)c1ccccc1)C[C@@H]3OC1CC(N)C(O)C(C)O1 (stereo partly drawn) | 0.474 µM (active) | 0.19 µM (active) | 0.171 µM (active) | 0.33 µM (active) | 0.693 µM (active) | 1.84 | 0.362 µM (active) | 0.179 µM (active) | 0.53 µM (active) | 0.624 µM (active) | 0.213 µM (active) | 0.155 µM (active) | 0.122 µM (active) | 0.973 µM (active) | 0.0355 µM (active) | 0.161 µM (active) | 0.201 µM (active) | 0.157 µM (active) | 0.233 µM (active) | 0.304 µM (active)
CC1(C)Oc2ccccc2[N+]([O-])=C1c1ccccc1 | > 100 µM (inactive) | > 100 µM (inactive) |  | > 100 µM (inactive) |  | > 100 |  | > 100 µM (inactive) |  | > 100 µM (inactive) | > 100 µM (inactive) | > 100 µM (inactive) | > 100 µM (inactive) | > 100 µM (inactive) | > 100 µM (inactive) | > 100 µM (inactive) | > 100 µM (inactive) | > 100 µM (inactive) | > 100 µM (inactive) | 
O=C1OC(=O)c2c1c(-c1ccccc1)nc1ccccc21 | > 100 µM (inactive) | > 100 µM (inactive) |  | > 100 µM (inactive) | > 100 µM (inactive) | > 100 |  | > 100 µM (inactive) | > 100 µM (inactive) | > 100 µM (inactive) | > 100 µM (inactive) | > 100 µM (inactive) | > 100 µM (inactive) | > 100 µM (inactive) | > 100 µM (inactive) | > 100 µM (inactive) | > 100 µM (inactive) | > 100 µM (inactive) | > 100 µM (inactive) | 
Cc1cc(S(=O)(=O)O)c(NC(=O)C(=O)Cc2cc(=O)oc3cc(O)ccc23)cc1Cl | > 100 µM (inactive) | > 100 µM (inactive) |  | > 100 µM (inactive) | > 100 µM (inactive) | > 100 |  | > 100 µM (inactive) | > 100 µM (inactive) | > 100 µM (inactive) | > 100 µM (inactive) | > 100 µM (inactive) | > 100 µM (inactive) | > 100 µM (inactive) | > 100 µM (inactive) | > 100 µM (inactive) | > 100 µM (inactive) | > 100 µM (inactive) | > 100 µM (inactive) | 
COC(=O)C(=Cc1cc(OC)c(OC)c(OC)c1-c1cc2c(cc1C1(C)OCCS1)OCO2)C(=O)OC (stereo not drawn) | 40 µM (inactive) | 24.6 µM (inactive) |  | 26.7 µM (inactive) | 35.6 µM (inactive) | 24.7 |  | 98.9 µM (inactive) | 86.9 µM (inactive) | 15.2 µM (inactive) | 37.3 µM (inactive) | 44.5 µM (inactive) | 29.2 µM (inactive) | 33.4 µM (inactive) | 26.6 µM (inactive) | 26.4 µM (inactive) | 19.8 µM (inactive) | 23.2 µM (inactive) | 33.6 µM (inactive) | 
N#C/N=C(/N)NCN/C(N)=N\C#N | 64.6 µM (inactive) | > 100 µM (inactive) |  | 73.3 µM (inactive) | > 100 µM (inactive) | 22.3 |  | > 100 µM (inactive) | > 100 µM (inactive) | > 100 µM (inactive) | > 100 µM (inactive) | > 100 µM (inactive) | > 100 µM (inactive) | > 100 µM (inactive) | > 100 µM (inactive) | > 100 µM (inactive) | > 100 µM (inactive) | 58.9 µM (inactive) | 43.7 µM (inactive) | 
c1ccc2c(c1)cc1n2CC2CN=NC12 (stereo not drawn) |  | > 100 µM (inactive) |  | > 100 µM (inactive) | > 100 µM (inactive) | > 100 |  | > 100 µM (inactive) |  | > 100 µM (inactive) | > 100 µM (inactive) | > 100 µM (inactive) | > 100 µM (inactive) | > 100 µM (inactive) | > 100 µM (inactive) | > 100 µM (inactive) |  | > 100 µM (inactive) | > 100 µM (inactive) | 
O=C(c1ccccc1)n1cc(/C=C/[N+](=O)[O-])c2ccccc21 | 24.7 µM (inactive) | 17.9 µM (inactive) |  | 20.5 µM (inactive) | > 100 µM (inactive) | 19.5 |  | 30.7 µM (inactive) | > 100 µM (inactive) | 51.8 µM (inactive) | 32.2 µM (inactive) | 39.2 µM (inactive) | > 100 µM (inactive) | 18.5 µM (inactive) | 21.9 µM (inactive) | 34.8 µM (inactive) | 20.1 µM (inactive) | 25.1 µM (inactive) | 19.7 µM (inactive) | 
COC(=O)c1sc(=NC(=S)N2CCCCC2)sc1C(=O)OC | 63 µM (inactive) | > 100 µM (inactive) |  | > 100 µM (inactive) |  | > 100 |  | > 100 µM (inactive) | > 100 µM (inactive) | 3.01 µM (inactive) | > 100 µM (inactive) | > 100 µM (inactive) | > 100 µM (inactive) | > 100 µM (inactive) | 6.38 µM (inactive) | 80.9 µM (inactive) |  | 18.2 µM (inactive) | 71.6 µM (inactive) | 
CC(C)c1ccccc1NC(=O)C(=O)Cc1nc2ccccc2s1 | > 100 µM (inactive) | > 100 µM (inactive) |  | > 100 µM (inactive) | > 100 µM (inactive) | > 100 |  | > 100 µM (inactive) | > 100 µM (inactive) | > 100 µM (inactive) | > 100 µM (inactive) | > 100 µM (inactive) | > 100 µM (inactive) | > 100 µM (inactive) | > 100 µM (inactive) | > 100 µM (inactive) | > 100 µM (inactive) | > 100 µM (inactive) |  | 
CCOC(=O)C1=C(OC(OCC)C([Se]c2ccccc2)C(C)C)CCC1 (stereo not drawn) | 14.7 µM (inactive) | 12.5 µM (inactive) |  | 9.46 µM (inactive) | 18.8 µM (inactive) | 15.2 |  | 27.2 µM (inactive) | 47 µM (inactive) | 15.1 µM (inactive) | 26.4 µM (inactive) | 10.4 µM (inactive) | 68.7 µM (inactive) | 16.4 µM (inactive) | 16.9 µM (inactive) | 13 µM (inactive) | 8.28 µM (inactive) | 5.52 µM (inactive) | 37 µM (inactive) | 
Cc1nc(Nc2ccc(Cl)cc2)sc1C(=O)Nc1cccc2c(=O)[nH][nH]c(=O)c12 | 16 µM (inactive) | 24 µM (inactive) |  | 28.6 µM (inactive) | 8.34 µM (inactive) | 21.8 |  | 43.3 µM (inactive) | > 100 µM (inactive) | 18.9 µM (inactive) | 36 µM (inactive) | 36.1 µM (inactive) | 35.6 µM (inactive) | 52.4 µM (inactive) | 25.8 µM (inactive) | 2.52 µM (inactive) | 16.4 µM (inactive) | 7.24 µM (inactive) | 1.26 µM (inactive) | 
CCOP(=O)(OCC)C1=NC=CC=CC1n1c(-c2ccccc2)nn(CC)c1=O (stereo not drawn) | > 100 µM (inactive) | > 100 µM (inactive) |  | > 100 µM (inactive) | > 100 µM (inactive) | > 100 |  | > 100 µM (inactive) | > 100 µM (inactive) | > 100 µM (inactive) | > 100 µM (inactive) | > 100 µM (inactive) | > 100 µM (inactive) | > 100 µM (inactive) | > 100 µM (inactive) | > 100 µM (inactive) | > 100 µM (inactive) | > 100 µM (inactive) |  | 
COc1ccc2[nH]c3ccc4cc[n+](CCN5CCC(C6CCN(CC[n+]7ccc8ccc9[nH]c%10ccc(OC)cc%10c9c8c7)CC6)CC5)cc4c3c2c1 |  | 0.262 µM (active) | 31 µM (inactive) | 0.569 µM (active) | > 50 µM (inactive) | 2.24 | > 50 µM (inactive) | 1.38 µM (inactive) | 21.4 µM (inactive) | > 62.1 µM (inactive) | 0.526 µM (active) | 0.661 µM (active) | > 40.6 µM (inactive) | 1.88 µM (inactive) |  | 1.81 µM (inactive) | > 50 µM (inactive) | 0.23 µM (active) | 0.228 µM (active) | 35.5 µM (inactive)
CC(C1=CC=C2[C@@H]3CCC4CC(N(C)C)CC[C@]4(C)C3CC[C@]12C)N(C)C=O (stereo partly drawn) | > 100 µM (inactive) | > 100 µM (inactive) |  | > 100 µM (inactive) |  | > 100 |  | > 100 µM (inactive) | > 100 µM (inactive) | > 100 µM (inactive) | > 100 µM (inactive) | > 100 µM (inactive) | > 100 µM (inactive) | > 100 µM (inactive) | > 10 µM (inactive) | > 100 µM (inactive) | > 100 µM (inactive) | > 100 µM (inactive) | 36.1 µM (inactive) | 
O=C(O)CCCCCO | > 100 µM (inactive) | > 100 µM (inactive) |  | > 100 µM (inactive) | > 100 µM (inactive) | > 100 |  | > 100 µM (inactive) | > 100 µM (inactive) | > 100 µM (inactive) | > 100 µM (inactive) | > 100 µM (inactive) | > 100 µM (inactive) | > 100 µM (inactive) | > 100 µM (inactive) | > 100 µM (inactive) | > 100 µM (inactive) | > 100 µM (inactive) | > 100 µM (inactive) | 
COC(=O)/C(C#N)=C1\CCC(OC)N1 (stereo not drawn) | > 100 µM (inactive) | > 100 µM (inactive) |  | 47.2 µM (inactive) | > 100 µM (inactive) | > 100 |  | > 100 µM (inactive) | > 100 µM (inactive) | > 100 µM (inactive) | > 100 µM (inactive) | > 100 µM (inactive) | > 100 µM (inactive) | > 100 µM (inactive) | > 100 µM (inactive) | > 100 µM (inactive) | > 100 µM (inactive) | > 100 µM (inactive) | > 100 µM (inactive) | 
